Results taken from patent publication US9296711B2, “Substituted isoxazole amide compounds as inhibitors of stearoyl-CoA desaturase 1 (SCD1)” (Hoffman-La Roche Inc., priority 2012, dated 2016).

Test system: not given
Test: not given
Conditions: not given

melting point [°C]	Structure (SMILES)
221 to 222	NC(=O)c1cc(-c2ccc(OCc3cccc(F)c3)cc2)no1 [Example 16, 3-[4-(3-Fluoro-benzyloxy)-phenyl]-isoxazole-5-carboxylic acid amide]

Biological target: T1, SCD1 (Mus musculus, UniProt P13516)
T1 construct: Mouse liver microsomes, prepared from mice fed a high-carbohydrate diet, were a source of the SCD; from tissue; host or cells: mouse liver microsomes (mice fed a high-carbohydrate diet)
T1 sequence (P13516 1-355): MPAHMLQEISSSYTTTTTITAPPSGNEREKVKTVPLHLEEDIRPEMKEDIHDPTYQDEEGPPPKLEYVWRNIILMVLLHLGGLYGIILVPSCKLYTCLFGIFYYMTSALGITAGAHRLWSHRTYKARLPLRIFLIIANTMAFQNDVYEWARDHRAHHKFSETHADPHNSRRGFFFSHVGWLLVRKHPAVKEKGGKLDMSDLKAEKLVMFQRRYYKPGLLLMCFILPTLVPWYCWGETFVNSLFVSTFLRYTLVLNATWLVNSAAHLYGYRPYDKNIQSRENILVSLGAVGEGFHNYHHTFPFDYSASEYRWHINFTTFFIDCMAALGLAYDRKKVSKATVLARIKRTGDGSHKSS
Test: SCD assay: release of tritiated water from desaturation of 9,10-3H-stearoyl CoA by mouse liver microsomes
Type: biochemical
Conditions: mouse liver microsomes as SCD source; 300 nM (9,10)3H-stearoyl CoA; 25 minutes at room temperature; read-out: IC50 (in vitro inhibition of SCD1)
Source text: Stearoyl CoA desaturase activity was monitored by a modification of the acyl carrier protein assay described by B. R. Talamo and K. Bloch in Anal. Biochem. 1968, 29, 300-304. The SCD assay monitors the release of tritiated water from the desaturation of 9,10-^3H-stearoyl CoA.
Mouse liver microsomes, prepared from mice fed a high-carbohydrate diet, were a source of the SCD and cyt b5 and cyt b5 reductase, necessary accessory proteins for the coupled reaction. Reaction mixtures for compound titrations contained 50 mM Tris HCl pH 7.5, 100 mM NaCl, 0.165 mg/ml BSA, 2.4% DMSO, 1 mM NADH, 0.03% T-20, and 300 nM (9,10)^3H-stearoyl CoA (Perkin-Elmer). Reactions were initiated upon the addition of 4 ug/ml SCD microsomes. Incubations were terminated after 25 minutes at room temperature with cold 6% TCA. After standing 10 minutes at 4° C., samples were centrifuged 15 minutes at 4000 rpm to pellet precipitated protein. Supernatants were added to microtiter plates containing suspensions of activated charcoal (Darco G-60, Fisher Scientific) and mixed by inversion. Plates were then centrifuged to separate ^3H—H2O product from charcoal-bound reactants. Supernatants were quantitated in a Perkin Elmer Topcount 384 after solubilization in ScintiSafe Plus 50% (Fisher Scientific).
Inhibition (%) of SCD activity by compounds was calculated according to the following formula: % Inhibition=100*[1−(CPMsample−CPMblank)/(CPMtotal−CPMblank)]

Structure (SMILES)	IC50 [nM]
NC(=O)c1cc(-c2ccc(OCc3cccc(F)c3)cc2)no1 [Example 16, 3-[4-(3-Fluoro-benzyloxy)-phenyl]-isoxazole-5-carboxylic acid amide]	450
Cc1cc(F)ccc1OCc1ccc(-c2cc(C(N)=O)on2)cc1 [Example 42, 3-[4-(4-Fluoro-2-methyl-phenoxymethyl)-phenyl]-isoxazole-5-carboxylic acid amide]	280
Cc1ncccc1OCc1ccc(-c2cc(C(N)=O)on2)cc1 [Example 44, 3-[4-(2-Methyl-pyridin-3-yloxymethyl)-phenyl]-isoxazole-5-carboxylic acid amide]	1100
NC(=O)c1cc(-c2ccc(CN3Cc4ccccc4C3)cc2)no1 [Example 46, 3-[4-(1,3-Dihydro-isoindol-2-ylmethyl)-phenyl]-isoxazole-5-carboxylic acid amide]	2800
NC(=O)c1cc(-c2ccc(Cn3nnc4ccccc43)cc2)no1 [Example 48, 3-(4-Benzotriazol-1-ylmethyl-phenyl)-isoxazole-5-carboxylic acid amide]	230
NC(=O)c1cc(-c2ccc(OCc3ccccc3C(F)(F)F)c(Cl)c2)no1 [Example 55, 3-[3-Chloro-4-(2-trifluoromethyl-benzyloxy)-phenyl]-isoxazole-5-carboxylic acid amide]	2700

Stronger by IC50, values ahead:

IC50 [nM]	Structure (SMILES)
220	Cc1cccc2c1ccn2Cc1ccc(-c2cc(C(N)=O)on2)cc1 [Example 54, 3-[4-(4-Methyl-indol-1-ylmethyl)-phenyl]-isoxazole-5-carboxylic acid amide]
100	CC1Cc2ccccc2N1Cc1ccc(-c2cc(C(N)=O)on2)cc1 (stereo not shown) [Example 53, 3-[4-(2-Methyl-2,3-dihydro-indol-1-ylmethyl)-phenyl]-isoxazole-5-carboxylic acid amide]
74	NC(=O)c1cc(-c2ccc(Cn3ncc4ccccc43)cc2)no1 [Example 50, 3-(4-Indazol-1-ylmethyl-phenyl)-isoxazole-5-carboxylic acid amide]
72	NC(=O)c1cc(-c2ccc(Cn3cnc4ccccc43)cc2)no1 [Example 49, 3-(4-Benzoimidazol-1-ylmethyl-phenyl)-isoxazole-5-carboxylic acid amide]
55	Cc1ccc(F)cc1OCc1ccc(-c2cc(C(N)=O)on2)cc1 [Example 43, 3-[4-(5-Fluoro-2-methyl-phenoxymethyl)-phenyl]-isoxazole-5-carboxylic acid amide]
47	NC(=O)c1cc(-c2ccc(Cn3cc4ccccc4n3)cc2)no1 [Example 51, 3-(4-Indazol-2-ylmethyl-phenyl)-isoxazole-5-carboxylic acid amide]
31	NC(=O)c1cc(-c2ccc(CN3CCc4ccccc43)cc2)no1 [Example 45, 3-[4-(2,3-Dihydro-indol-1-ylmethyl)-phenyl]-isoxazole-5-carboxylic acid amide]
24	NC(=O)c1cc(-c2ccc(CN3CCCc4ccccc43)cc2)no1 [Example 52, 3-[4-(3,4-Dihydro-2H-quinolin-1-ylmethyl)-phenyl]-isoxazole-5-carboxylic acid amide]
17	NC(=O)c1cc(-c2ccc(Cn3ccc4ccccc43)cc2)no1 [Example 47, 3-(4-Indol-1-ylmethyl-phenyl)-isoxazole-5-carboxylic acid amide]
